Measurements as given in patent publication US10562891B2, “Quinazolinones as PARP14 inhibitors” (Ribon Therapeutics Inc., priority 2017, dated 2020).
Where a name gives a salt, the structure may show the parent alone.

The molecules below were run against catalytic domain of human PARP14 (Homo sapiens (Human), UniProt Q460N5) (assay: Enzymatic assay for inhibition of PARP14 (DELFIA, auto-modification with biotin-NAD)). Details: auto-modification of PARP14 by biotin-NAD, 50 nM PARP14, 3 μM biotin-NAD.
Assay type: biochemical
Summary of the method: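 DELFIA auto-modification read-out: europium-streptavidin bound to biotin-NAD incorporated onto nickel-captured His-TEV PARP14 catalytic domain. Compound preincubated 30 min, then 50 nM enzyme with 3 μM biotin-NAD reacted 3 h, all at 25 °C, pH 8, then NAD quench. Percent inhibition normalized to rucaparib/DMSO wells, fitted (4- or 3-parameter) for IC50.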

Chain of catalytic domain of human PARP14 (Q460N5 1611-1801): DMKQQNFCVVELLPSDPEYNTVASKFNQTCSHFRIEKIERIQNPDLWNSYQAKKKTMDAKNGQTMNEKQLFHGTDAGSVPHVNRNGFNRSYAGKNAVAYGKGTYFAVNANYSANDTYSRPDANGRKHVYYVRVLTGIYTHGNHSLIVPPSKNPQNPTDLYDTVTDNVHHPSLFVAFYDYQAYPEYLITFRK

Row | Structure (SMILES) | IC50
1 | O=c1[nH]c(CS[C@H]2CC[C@H](CO)CC2)nc2cc(Nc3cccnc3)ccc12 [Example 107, 2-(((trans-4-(Hydroxymethyl)cyclohexyl)thio)methyl)-7-(pyridin-3-ylamino) quinazolin-4(3H)-one] | < 1000 nM
2 | CNC[C@H]1CC[C@H](SCc2nc3c(C)cccc3c(=O)[nH]2)CC1 [Example 73, 8-Methyl-2-(((trans-4-((methylamino)methyl)cyclohexyl)thio)methyl) quinazolin-4(3H)-one] | < 1000 nM
3 | COc1cccc2c(=O)[nH]c(CSC3CCOCC3)nc12 [Example 6] | 1000 to 10000 nM
4 | O=c1[nH]c(CS[C@H]2CC[C@H](O)CC2)nc2cc(N[C@H]3CCC[C@@H]3F)cc(F)c12 (relative stereo) [Example 340] | < 1000 nM
5 | Cc1ccc(C(F)(F)F)c2c(=O)[nH]c(CS[C@H]3CC[C@@H](O)CC3)nc12 [Example 61, 2-(((cis-4-Hydroxycyclohexyl)thio)methyl)-8-methyl-5-(trifluoromethyl) quinazolin-4(3H)-one] | < 1000 nM
6 | Cc1cccc2c(=O)[nH]c(CS[C@H]3CCC[C@H](N)CC3)nc12 (relative stereo) [Example 54, 2-(((trans-4-Aminocycloheptyl)thio)methyl)-8-methylquinazolin-4(3H)-one Trifluoroacetate] | 1000 to 10000 nM
7 | O=c1[nH]c(CSC2CCOCC2)nc2cc(OCC3CCOCC3)cc(F)c12 [Example 236, 5-Fluoro-7-((tetrahydro-2H-pyran-4-yl)methoxy)-2-(((tetrahydro-2H-pyran-4-yl)thio)methyl)quinazolin-4(3H)-one] | < 1000 nM
8 | CS(=O)(=O)N1CCC[C@@H](Nc2cc(F)c3c(=O)[nH]c(CSC4CCOCC4)nc3c2)C1 [Example 250, (R)-5-fluoro-7-((1-(methylsulfonyl)piperidin-3-yl)amino)-2-(((tetrahydro-2H-pyran-4-yl)thio)methyl)quinazolin-4(3H)-one] | < 1000 nM
9 | O=c1[nH]c(CS[C@@H]2CCNCC2F)nc2cc(OCC3CC3)cc(F)c12 (stereo in doubt) [Example 295, 7-(Cyclopropylmethoxy)-5-fluoro-2-(((cis-3-fluoropiperidin-4-yl)thio)methyl)quinazolin-4(3H)-one hydrochloride] | < 1000 nM
10 | O=c1[nH]c(CS[C@H]2CC[C@H](O)CC2)nc2cc(OC[C@H]3CCOC3)cc(F)c12 [Example 325b, 5-Fluoro-2-((((trans)-4-hydroxycyclohexyl)thio)methyl)-7-(((S)-tetrahydrofuran-3-yl)methoxy)quinazolin-4(3H)-one] | < 1000 nM
11 | Nc1cc2nc(CSC3CCOCC3)[nH]c(=O)c2c(F)c1F [Example 403] | > 10000 nM
12 | Cc1cccc2c(=O)[nH]c(CSC3CCN(Cc4ccc5cnn(C)c5c4)CC3)nc12 [Example 148, 8-Methyl-2-(((1-((1-methyl-1H-indazol-6-yl)methyl)piperidin-4-yl)thio)methyl)quinazolin-4(3H)-one trifluoroacetate] | < 1000 nM
13 | O=c1[nH]c(CSC2CCOCC2)nc2cc(NC3CCN(C4COC4)CC3)cc(F)c12 [Example 302, 5-Fluoro-7-((1-(oxetan-3-yl)piperidin-4-yl)amino)-2-(((tetrahydro-2H-pyran-4-yl)thio)methyl)quinazolin-4(3H)-one] | < 1000 nM
14 | O=c1[nH]c(CS[C@H]2CC[C@H](O)CC2)nc2cc(Nc3ccccc3)ccc12 [Example 98, 2-(((trans-4-Hydroxycyclohexyl)thio)methyl)-7-(phenylamino)quinazolin-4(3H)-one] | < 1000 nM
15 | Cc1cccc2c(=O)[nH]c(CSC3CCN(C)C3)nc12 (stereo not drawn) [Example 16, 8-Methyl-2-(((1-methylpyrrolidin-3-yl)thio)methyl)quinazolin-4(3H)-one] | 1000 to 10000 nM
16 | O=c1[nH]c(CSC2CCOCC2)nc2cc(OCc3ccccc3)ccc12 [Example 96, 7-(Benzyloxy)-2-(((tetrahydro-2H-pyran-4-yl)thio)methyl)quinazolin-4(3H)-one] | 1000 to 10000 nM
17 | CN(C)[C@H]1CC[C@H](SCc2nc3cc(OCC4CC4)cc(F)c3c(=O)[nH]2)CC1 [Example 404] | < 1000 nM
18 | Cc1cccc2c(=O)[nH]c(CS[C@H]3CC[C@@H](CN)CC3)nc12 [Example 65, 2-(((cis-4-(Aminomethyl)cyclohexyl)thio)methyl)-8-methylquinazolin-4(3H)-one Trifluoroacetate] | 1000 to 10000 nM

Other lines, results leading:

Row | IC50 | Structure (SMILES)
19 | 1000 to 10000 nM | O=c1[nH]c(CS[C@H]2CC[C@@H](O)CC2)nc2cc(Nc3ccccc3)ccc12 [Example 99, 2-(((cis-4-Hydroxycyclohexyl)thio)methyl)-7-(phenylamino)quinazolin-4(3H)-one]
20 | < 1000 nM | O=c1[nH]c(CS[C@H]2CC[C@H](O)CC2)nc2cc(NC3CCCC3)cc(C(F)(F)F)c12 [Example 199, 7-(cyclopentylamino)-2-((((1R,4R)-4-hydroxycyclohexyl)thio)methyl)-5-(trifluoromethyl)quinazolin-4(3H)-one]
21 | < 1000 nM | Cc1ccc(C(F)(F)F)c2c(=O)[nH]c(CSC3CCC(O)CC3)nc12 (stereo not drawn) [Example 59, 2-(((4-Hydroxycyclohexyl)thio)methyl)-8-methyl-5-(trifluoromethyl)quinazolin-4(3H)-one]
22 | 1000 to 10000 nM | Cc1cccc2c(=O)[nH]c(CSC3CCN(S(=O)(=O)c4ccccn4)CC3)nc12 [Example 175, 8-Methyl-2-(((1-(pyridin-2-ylsulfonyl)piperidin-4-yl)thio)methyl)quinazolin-4(3H)-one]
23 | < 1000 nM | Cc1cccc2c(=O)[nH]c(CS[C@H]3CC[C@H](CO)CC3)nc12 [Example 62, 2-(((trans-4-(Hydroxymethyl)cyclohexyl)thio)methyl)-8-methylquinazolin-4(3H)-one]
24 | > 10000 nM | Cc1cccc2c(=O)[nH]c(CS[C@@H]3CCC[C@H](CO)O3)nc12 (relative stereo) [Example 260, 2-(((Cis-6-(hydroxymethyl)tetrahydro-2H-pyran-2-yl)thio)methyl)-8-methylquinazolin-4(3H)-one]
25 | < 1000 nM | Cc1cc(OCC2CCOCC2)cc2nc(CSC3CCOCC3)[nH]c(=O)c12 [Example 364]
26 | < 1000 nM | CC(=O)N1CCC(CNc2cc3nc(CSC4CCOCC4)[nH]c(=O)c3c(F)c2F)CC1 [Example 369]
27 | 1000 to 10000 nM | O=c1[nH]c(CSC2CCOCC2)nc2cc(NC3CCCC3)ncc12 [Example 189, 7-(cyclopentylamino)-2-(((tetrahydro-2H-pyran-4-yl)thio)methyl)pyrido[4,3-d]pyrimidin-4(3H)-one]
28 | < 1000 nM | CC(=O)N1CCC(COc2cc(F)c3c(=O)[nH]c(CS[C@H]4CC[C@@H](O)CC4)nc3c2)CC1 [Example 422]
29 | < 1000 nM | Cc1cccc2c(=O)[nH]c(CSC3CCC(N(C)C)CC3)nc12 (stereo not drawn) [Example 21, 2-(((4-(Dimethylamino)cyclohexyl)thio)methyl)-8-methylquinazolin-4(3H)-one]
30 | 1000 to 10000 nM | O=c1[nH]c(CS[C@H]2CC[C@H](CO)CC2)nc2cc(Nc3ccccc3)ccc12 [Example 104, 2-(((trans-4-(Hydroxymethyl)cyclohexyl)thio)methyl)-7-(phenylamino) quinazolin-4(3H)-one]
31 | < 1000 nM | O=c1[nH]c(CSC2CCOCC2)nc2cc(Nc3ccon3)ccc12 [Example 94, 7-(Isoxazol-3-ylamino)-2-(((tetrahydro-2H-pyran-4-yl)thio)methyl)quinazolin-4(3H)-one]
32 | < 1000 nM | CC(=O)N1CC[C@@H](Nc2cc3nc(CS[C@H]4CC[C@H](O)CC4)[nH]c(=O)c3c(F)c2F)C1 [Example 349]
33 | < 1000 nM | CN1CCN([C@H]2CC[C@@H](Nc3cc4nc(CSC5CCOCC5)[nH]c(=O)c4c(F)c3F)CC2)CC1 [Example 347]
34 | < 1000 nM | CN1CC[C@@H](COc2cc(F)c3c(=O)[nH]c(CS[C@H]4CC[C@H](O)CC4)nc3c2)[C@H](F)C1 [Example 335a, 5-fluoro-7-(((3S,4S)-3-fluoro-1-methylpiperidin-4-yl)methoxy)-2-((((trans)-4-hydroxycyclohexyl)thio)methyl)quinazolin-4(3H)-one]
35 | < 1000 nM | Cc1cccc2c(=O)[nH]c(CSC3CCN(Cc4nccn4C)CC3)nc12 [Example 138, 8-Methyl-2-(((1-((1-methyl-1H-imidazol-2-yl)methyl)piperidin-4-yl)thio)methyl)quinazolin-4(3H)-one bistrifluoroacetate]
36 | 1000 to 10000 nM | O=c1[nH]c(CSC2CCOCC2)nc2cc(OC[C@H]3CCNC[C@@H]3F)cc(F)c12 (relative stereo) [Example 352]
37 | < 1000 nM | O=c1[nH]c(CSC2CCCCC2)nc2cc(NC3CCCC3)c(F)c(F)c12 [Example 310, 2-((Cyclohexylthio)methyl)-7-(cyclopentylamino)-5,6-difluoroquinazolin-4(3H)-one]
38 | > 10000 nM | CN1CCCC(Nc2ccc3c(=O)[nH]c(CSC4CCOCC4)nc3c2)C1 (stereo not drawn) [Example 133, 7-((1-Methylpiperidin-3-yl)amino)-2-(((tetrahydro-2H-pyran-4-yl)thio)methyl)quinazolin-4(3H)-one]
39 | > 10000 nM | CC(=O)N1CCCC(Nc2ccc3c(=O)[nH]c(CSC4CCOCC4)nc3c2)C1 (stereo not drawn) [Example 132, 7-((1-Acetylpiperidin-3-yl)amino)-2-(((tetrahydro-2H-pyran-4-yl)thio)methyl)quinazolin-4(3H)-one]
40 | < 1000 nM | O=c1[nH]c(CSC2CCOCC2)nc2cc(OC[C@@H]3CCOC3)cc(F)c12 [Example 239a, (R)-5-fluoro-2-(((tetrahydro-2H-pyran-4-yl)thio)methyl)-7-((tetrahydrofuran-3-yl)methoxy)quinazolin-4(3H)-one]
41 | < 1000 nM | O=c1[nH]c(CS[C@H]2CC[C@H](C(=O)O)CC2)nc2cc(NC3CCCC3)cc(F)c12 [Example 217, trans-4-(((7-(Cyclopentylamino)-5-fluoro-4-oxo-3,4-dihydroquinazolin-2-yl)methyl)thio)cyclohexane-1-carboxylic acid]
42 | < 1000 nM | O=c1[nH]c(CSC2CCOCC2)nc2cc(OC[C@H]3CCC[C@H]3O)cc(F)c12 (relative stereo) [Example 359]
